# How the values were obtained:
# [1] = tested on: influenza virus strain A/Regensburg/D6/2009 (RB1, H1N1 pdm09); assay: Example 1: virus titer in the lung of infected mice, AVICEL plaque assay; type: in vivo, C57BL/6 mice
# Experimental: 8 weeks old C57BL/6 mice (five per group) were infected with 1.5×10^5 PFU (5×MLD50) of the influenza virus strain A/Regensburg/D6/2009, (RB1, H1N1 pdm09). […] All animals received a volume of 200 μl per os. Mice were sacrificed 24 h post infection and lungs were weighed, transferred into a Lysing Matrix D tube (MP Bio) and BSS (buffered salt solution) in an amount of the 10-fold volume of the lung was applied to the samples. Organs were shredded using the FastPrep FP 120 (Savant). To remove the cell debris the homogenates were centrifuged for 15 min at 2000 rpm and the supernatant collected. The determination of virus titer in homogenates was performed using the AVICEL® plaque assay. Results are presented in FIG. 1 as virus titer (log 10) pfu/ml (left) or % virus titer (right). Virus titer was determined by two investigators independently. Mean values from all titrations were presented.
# [2] = tested on: A549 cells infected with A/Puerto Rico/8/34 (H1N1) and/or S. aureus 6850; type: cell-based
# S. aureus 6850 [3] = type: cell-based, Staphylococcus aureus
# [4] = WST-Assay (cell viability); type: cell-based; conditions: human, A549 cells, FIG. 17C
# Experimental: A549 cells were seeded in a 96-well flat-bottom tissue plate (Greiner, Germany) and were grown overnight. […] Thereafter, 10 μl WST-1 reagent (Roche, Germany) was added to the culture medium and incubated for four hours. During this time, the stable tetrazolium salt WST-1 was cleaved to a soluble formazan by metabolically active cells in the culture. After this incubation period, the formazan dye formed was quantitated with ELISA reader at 405 nm. The measured absorbance directly correlated to the number of viable cells.
# S. aureus 6850 [5] = assay: Over-night treated culture, bacterial titers (CFU/ml) and OD600; type: cell-based, Staphylococcus aureus
# Bacillus subtilis = assay: Bacterial load of B. subtilis after 18 h (OD600, plating); type: cell-based
# Experimental: Specifically, to test for a potential antibacterial effect on B. subtilis, over-night cultures of B. subtilis were incubated with either solvent or different concentrations of the MEK inhibitor PD-0184264 (as indicated) for 18 h. Afterwards, bacterial load was determined via measurement of the OD600 and plating of serial dilutions on BHI agar plates. Data shown in FIG. 11 represent means+SD of three independent experiments.
# [6] = tested on: A549 cells infected with influenza virus (IV) and S. aureus 6850; assay: Example 8: cytopathic effect in A549 cells infected with influenza virus and S. aureus 6850, light microscopy; type: cell-based, human; conditions: 10 μM, until 24 h p.i., super-infection
# Experimental: Influenza virus (IV) infection results in enhanced expression of antiviral cytokines, most importantly type I IFNs that activate critical downstream antiviral responses and may also potentiate subsequent bacterial infections. […] Specifically, A549 cells were pre-treated for 1 h with 10 μM of the specific MEK-inhibitor PD-0184264 or DMSO as solvent control. Afterwards, cells were rinsed with PBS and infected with influenza virus (IV) (MOI as indicated) for 30 min at 37° C., 5% CO2. Subsequently, cells were washed with PBS and infected with S. aureus 6850 (MOI as indicated) in the presence or absence of the inhibitor for 3 h. To avoid bacterial over-growth, an antibiotic wash step with lysostaphin (2 μg/mL) was performed for 20 min at 37° C. to remove not-internalized bacteria. Then, cells were washed once and were further incubated until 24 h p.i. in the presence of the inhibitor or solvent. At the end of the incubation period, the cell monolayer was analyzed via light microscopy.
# MRSA strain USA300 = assay: Over-night treated culture, bacterial titers (CFU/ml) and OD600; type: cell-based, Staphylococcus aureus
# [7] = tested on: MRSA strain S. aureus (USA300); assay: Cell-free culture bacterial growth (OD600)
# Experimental: Bacterial growth was monitored for 360 minutes.
# MRSA bacteria were incubated with different concentrations of the MEK inhibitor ranging from 0-100 μM and bacterial growth was monitored six hours after cultivation.
# H1N1 pdm09 = assay: Example 11: lung virus titration assay in infected mice; type: in vivo, C57BL/6 mice; conditions: for virus titer in the lung, control set to 100%: 24 h after infection
# Experimental: (A) After H1N1 pdm09 infection female C57BL/6 mice were treated with either 2.8, 8.4 or 25 mg/kg PD-0184264 (left side) or with 25, 75 or 150 mg/Kg […] ([…]) the oral route. 24 hrs after infection the animals were killed and lung was taken to prepare a 10% suspension. Virus titer was determined using the standard method. Virus titer of mice treated with the two MEK-inhibitors were compared to virus titer of mice treated with solvent (Control) alone. Virus tier in the lungs of control mice was set to 100% (black bar). Graphpad Prism 7 software was used to illustrate both figures.
# For oral application of 25 mg/kg, 2.5 mg of PD-0184264 were dissolved in 50 μl DMSO (Sigma-Aldrich, Germany) and further diluted with 0.15 ml Cremophor EL (Merck-Millipore, Germany) and 0.8 ml PBS (Gibco, Germany). For application of 8.4 mg/kg and 2.8 mg/kg, 0.84 mg or 0.28 mg PD-0184264 were dissolved with 50 μl DMSO (Sigma-Aldrich, Germany) and further diluted with 0.15 ml Cremophor EL/0.8 ml PBS.
# Eight week old female C57Bl/6 mice (Charles River Laboratories, Germany) with a body weight of 21.0-24.0 g at administration were used for antiviral studies. The animals were normally fed. Drinking water was available ad libitum.
# Drugs were administrated using a single dosing on test day 1 by oral gavage. The application speed was 15 s per dose with an administration volume of 200 μl.
# Mice were sacrificed 24 h post infection and lungs were weighed, transferred into a Lysing Matrix D tube (MP Bio) and BSS was applied in an amount of the 10-fold volume of the lung. Organs were shredded using the FastPrep FP 120 (Savant). To remove the cell debris the homogenates were centrifuged for 15 min at 2000 rpm and the supernatant collected. The determination of virus titer in homogenates was performed using the AVICEL® plaque assay as described previously (Haasbach et al. 2011, Mastrosovich et al. 2006).
# S. aureus = assay: Resistance development during 17 days of constant treatment; type: cell-based, Staphylococcus aureus; conditions: 24 h cycles repeated for 17 days
structure (smiles),measurement,setting,value
"O=C(O)c1ccc(F)c(F)c1Nc1ccc(I)cc1Cl [PD-0184264, 2-(2-chloro-4-iodophenylamino)-N-3,4-difluoro benzoic acid]",effect on virus titer in the lung (FIG. 1),"[1]; 25 mg/kg per os, 8 h interval, 24 h post infection",same effect as 150 mg/kg CI-1040
same,efficacy in vivo by oral administration (Example 1),[1]; 25 and 75 mg/kg,effective
same,concentration already showing reduction of the cytopathic effect,"[2]; bacterial and viral co-infection, FIG. 5",15 µM
same,"cytopathic effect (CPE), cell monolayer disruption","[2]; increasing concentrations, 24 h, IAV (H1N1) MOI 0.001 and S. aureus 6850 MOI 0.1",reversed in a concentration dependent manner
same,intracellular bacterial titers,S. aureus 6850 [3],reduced intracellular bacterial titers
same,CC50 at 24 h,[4],> 1580 µM
same,reduction of bacterial growth (FIG. 4),"S. aureus 6850 [5]; 10 μM, over night, S. aureus 6850",significant reduction of growth
same,reduction of bacterial titers,"S. aureus 6850 [5]; 20 μM, over night, S. aureus 6850, CFU/ml",1.5-2 orders of a magnitude
same,effect on bacterial titers (CFU/ml),"S. aureus 6850 [5]; over night treatment, S. aureus 6850, vs solvent",very strong reduction in bacterial load
same,viable bacterial counts,Bacillus subtilis; 10 μM,strong decrease in viable bacterial counts
same,viable bacterial counts,Bacillus subtilis; concentrations higher than 10 μM,complete abolishment
same,cytopathic effect (CPE),[6],completely abolished
same,reduction of bacterial growth (FIG. 4),"MRSA strain USA300; 10 μM, over night, MRSA USA300",significant reduction of growth
same,reduction of bacterial titers,"MRSA strain USA300; 20 μM, over night, MRSA USA300, CFU/ml",1.5-2 orders of a magnitude
same,effect on bacterial titers (CFU/ml),"MRSA strain USA300; over night treatment, MRSA USA300, vs solvent",very strong reduction in bacterial load
same,bacterial growth (OD600),"[7]; 50 μM, monitored for 360 minutes, vs solvent DMSO",almost complete absent
same,inhibition of bacterial growth (FIG. 3),"[7]; starting at 50 μM, 6 hrs",almost complete inhibition of growth
same,"virus titer in the lung, control set to 100%",H1N1 pdm09; 2.8 mg/kg oral,approx. 70%
same,"virus titer in the lung, control set to 100%",H1N1 pdm09; 8.4 mg/kg oral,approx. 20%
same,"virus titer in the lung, control set to 100%",H1N1 pdm09; 25 mg/kg oral,approx. 10%
same,reduction of the virus titer in the lung,"H1N1 pdm09; 25 mg/kg, FIG. 18",at least 90%
same,fold lower concentration needed to achieve a similar effect as 150 mg/kg CI-1040,H1N1 pdm09; oral,6 fold
same,resistance development in S. aureus,S. aureus,did not induce resistance

# Source: patent US11903917B2, “MEK-inhibitor for the treatment of viral and bacterial infections” (priority 2017, dated 2024)
